In US20260365690A1, “COMPOUND FOR RNA CAPPING AND USE THEREOF” (GUANGZHOU HENOVCOM BIOSCIENCE CO., LTD., priority 2022, published 2026) one finds Relative fluorescence reading and Final product mass data, which are given here for 14 compounds.

For assay [1], the system named is HEK293T cells. The experiment in a line: Expression efficiency of capped luciferase mRNAs in HEK293T cells. Format: cell-based. Conditions: 6 h after transfection of capped luciferase mRNA into HEK293T cells; ratio to N-7413 (= 1). The procedure: 2. Evaluation of Expression Efficiency of Different Capped Luciferase mRNAs in HEK293T Cells
1) HNE293T cells were cultured in DMEM medium containing 10% FBS and penicillin/streptomycin at 37 °C and 5% CO2.
2) The cultured HEK293T cells were spread in a 96-well plate with 1.25×10^4 cells per well.
3) After the cells completely adhered to the wall, 0.5 μg of a mixture of mRNA sample and Polyplus jetMESSENGER was added to each well of cells, and cultured at 37 °C and 5% CO2 for 6 hours.
4) The growth medium was removed from the cells to be tested and the cells were rinsed with PBS. After centrifugation to remove PBS, 50 μL of 1× lysis buffer was added thereto, and cells and all liquid were transferred to a microcentrifuge tube, and then centrifuged at 12000×g and 4 °C for 2 min.
5) The supernatant was transferred to a new tube. Fluorescence readings were detected using the ONE-Glo Luciferase Assay System Kit.
3. All compounds, N-7413, negative control and blank control were tested under the same conditions, and some experimental results in the test results are shown in Table 5.
The relative fluorescence reading results (6 h) after transfection of capped mRNA into 293T cells are now provided, as shown in Table 5. It can be seen from the FIGURE that the mRNA capped by the compound of the present disclosure has a high expression level, and some cap structures can enable higher expression efficiency of mRNA compared to N-7413.

Assay [2] concerns mRNA. Briefly: mRNA synthesis by in vitro transcription (co-transcriptional capping), final product mass. Format: biochemical. The following applies: obtained from 20 μL mRNA synthesis reaction system; T7 RNA Polymerase; cap analog 4 mM; 37 °C, 2 to 3 hours. The method, then:
1) The plasmids were linearized and the DNA templates were purified.
2) The mRNA was synthesized by in vitro transcription, using 11 cap structures of the present disclosure, positive control CleanCap®AG (3′OMe) (Trilink, N-7413), negative control (uncapped mRNA) and blank control (DNase/RNase-Free water), respectively.
The reaction was carried out at 37 °C for 2 to 3 hours. TURBO DNase digestion was carried out for 15 minutes. The mRNA was precipitated by LiC for 30 min or more or overnight, and the mRNA precipitate was washed with 75% ethanol, dried briefly to evaporate the ethanol, and the mRNA was redissolved with RNase-Free water.
3) The transcription product was purified, and the reaction yield was calculated to provide the test results of some compounds, as shown in Table 2.

For `C=CC[n+]1cn([C@@H]2O[C@H](COP(=O)(O)OP(=O)(O)OP(=O)(O)OC[C@H]3O[C@@H](n4cnc5c(N)ncnc54)[C@H](OC)[C@@H]3OP(=O)(O)OC[C@H]3O[C@@H](n4cnc5c(=O)[nH]c(N)nc54)[C@H](O)[C@@H]3O)[C@@H](CC)[C@H]2O)c2nc(N)[nH]c(=O)c21` [Compound 716], the Relative fluorescence reading in assay [1] was 1.50. For the same compound, in assay [2], the Final product mass worked out at 103 µg.

For the compound `CO[C@@H]1[C@H](CC(=O)NC[C@H]2O[C@@H](n3cnc4c(=O)[nH]c(N)nc43)[C@H](O)[C@@H]2O)[C@@H](COP(=O)(O)OP(=O)(O)OP(=O)(O)OC[C@H]2O[C@@H](n3c[n+](C)c4c(=O)[nH]c(N)nc43)[C@H](O)[C@@H]2C)O[C@H]1n1cnc2c(N)ncnc21` [Compound 59], in assay [1], the Relative fluorescence reading worked out at 0.71. For the same compound, the Final product mass in assay [2] turned out to be 91 µg.

Take `C/C=C/C[C@H]1[C@@H](O)[C@H](n2c[n+](C)c3c(=O)[nH]c(N)nc32)O[C@@H]1COP(=O)(O)OP(=O)(O)OP(=O)(O)OC[C@H]1O[C@@H](n2cnc3c(N)ncnc32)[C@H](OC)[C@@H]1OP(=O)([O-])OC[C@H]1O[C@@H](n2cnc3c(=O)[nH]c(N)nc32)[C@H](O)[C@@H]1O` [Compound 711]: in assay [1], the Relative fluorescence reading worked out at 1.86. In assay [2], this compound returned a Final product mass of 106 µg.

As to `CO[C@@H]1[C@H](OP(=O)(O)OC[C@H]2O[C@@H](n3cnc4c(=O)[nH]c(N)nc43)[C@H](O)[C@@H]2O)[C@@H](COP(=O)(O)OP(=O)(O)CP(=O)(O)OC[C@H]2O[C@@H](n3c[n+](C)c4c(=O)[nH]c(N)nc43)[C@H](O)[C@@H]2CCF)O[C@H]1n1cnc2c(N)ncnc21` [Compound 103], in assay [1], the Relative fluorescence reading came to 1.45. The Final product mass in assay [2] amounted to 94 µg.

For the compound `CO[C@@H]1[C@H](OP(=O)(O)OC[C@H]2O[C@@H](n3cnc4c(=O)[nH]c(N)nc43)[C@H](O)[C@@H]2O)[C@@H](COP(=O)(O)OP(=O)(O)OP(=O)(O)OC[C@H]2O[C@@H](n3c[n+](C)c4c(=O)[nH]c(N)nc43)[C@H](O)[C@@H]2N=[N+]=[N-])O[C@H]1n1cnc2c(N)ncnc21` [Compound 399], in assay [1], the Relative fluorescence reading turned out to be 1.51. In assay [2], this compound gave a Final product mass of 117 µg.

Consider `CO[C@@H]1[C@H](OP(=O)(O)OC[C@H]2O[C@@H](n3cnc4c(=O)[nH]c(N)nc43)[C@H](O)[C@@H]2O)[C@@H](COP(=O)(O)OP(=O)(O)OP(=O)(O)OC[C@H]2O[C@@H](n3c[n+](C)c4c(=O)[nH]c(N)nc43)[C@H](O)[C@@H]2NC(=O)C(C)C)O[C@H]1n1cnc2c(N)ncnc21` [Compound 293], for which the Relative fluorescence reading in assay [1] is given as 1.68. In assay [2], the Final product mass was determined as 103 µg.

On to `CCCCCCNC(=O)[C@H]1[C@@H](O)[C@H](n2c[n+](C)c3c(=O)[nH]c(N)nc32)O[C@@H]1COP(=O)(O)OP(=O)(O)OP(=O)(O)OC[C@H]1O[C@@H](n2cnc3c(N)ncnc32)[C@H](OC)[C@@H]1OP(=O)(O)OC[C@H]1O[C@@H](n2cnc3c(=O)[nH]c(N)nc32)[C@H](O)[C@@H]1O` [Compound 205], for which, in assay [1], the Relative fluorescence reading was 1.52. In assay [2], this compound showed a Final product mass of 98 µg.

For `CCC[C@H]1[C@@H](O)[C@H](n2c[n+](C)c3c(=O)[nH]c(N)nc32)O[C@@H]1COP(=O)(O)OP(=O)(O)OP(=O)(O)OC[C@H]1O[C@@H](n2cnc3c(NC)ncnc32)[C@H](OC)[C@@H]1OP(=O)(O)OC[C@H]1O[C@@H](n2cnc3c(=O)[nH]c(N)nc32)[C@H](O)[C@@H]1O` [Compound 719], the Relative fluorescence reading in assay [1] is reported as 1.69. In addition, in assay [2], the Final product mass came to 97 µg.

As for `CC[C@H]1[C@@H](O)[C@H](n2c[n+](C)c3c(=O)[nH]c(N)nc32)O[C@@H]1COP(=O)(O)OP(O)(=S)OP(=O)(O)OC[C@H]1O[C@@H](n2cnc3c(N)ncnc32)[C@H](OC)[C@@H]1OP(=O)([O-])OC[C@H]1O[C@@H](n2cnc3c(=O)[nH]c(N)nc32)[C@H](O)[C@@H]1O` (stereo partly shown) [Compound 718], the Relative fluorescence reading in assay [1] amounted to 1.66. Also, the Final product mass in assay [2] amounted to 106 µg.

`CO[C@@H]1[C@H](OP(=O)(O)OC[C@H]2O[C@@H](n3cnc4c(=O)[nH]c(N)nc43)[C@H](O)[C@@H]2O)[C@@H](COP(=O)(O)OP(=O)(O)OP(=O)(O)OC[C@H]2O[C@@H](n3c[n+](C)c4c(=O)[nH]c(N)nc43)[C@H](O)[C@@H]2NC(=O)C(C)(C)C)O[C@H]1n1cnc2c(N)ncnc21` [Compound 722]: the Relative fluorescence reading in assay [1] amounted to 1.74. For the same compound, the Final product mass in assay [2] was 103 µg.

For `CCC(=O)N[C@H]1[C@@H](O)[C@H](n2c[n+](C)c3c(=O)[nH]c(N)nc32)O[C@@H]1COP(=O)(O)OP(=O)(O)OP(=O)(O)OC[C@H]1O[C@@H](n2cnc3c(N)ncnc32)[C@H](OC)[C@@H]1OP(=O)(O)OC[C@H]1O[C@@H](n2cnc3c(=O)[nH]c(N)nc32)[C@H](O)[C@@H]1O` [Compound 291], the Relative fluorescence reading in assay [1] is recorded as 1.60. In assay [2], this compound yielded a Final product mass of 106 µg.

As for `CO[C@@H]1[C@H](OP(=O)(O)OC[C@H]2O[C@@H](n3cnc4c(=O)[nH]c(N)nc43)[C@H](O)[C@@H]2O)[C@@H](COP(=O)(O)OP(=O)(O)OP(=O)(O)OC[C@H]2O[C@@H](n3c[n+](C)c4c(=O)[nH]c(N)nc43)[C@H](O)[C@@H]2NC(=O)c2ccccc2)O[C@H]1n1cnc2c(N)ncnc21` [Compound 297], the Relative fluorescence reading in assay [1] came out at 1.79. This compound came in with a Final product mass in assay [2] of 110 µg.

`CNC(=O)[C@H]1[C@@H](O)[C@H](n2c[n+](C)c3c(=O)[nH]c(N)nc32)O[C@@H]1COP(=O)(O)OP(=O)(O)OP(=O)(O)OC[C@H]1O[C@@H](n2cnc3c(N)ncnc32)[C@H](OC)[C@@H]1OP(=O)(O)OC[C@H]1O[C@@H](n2cnc3c(=O)[nH]c(N)nc32)[C@H](O)[C@@H]1O` [Compound 191]: the Relative fluorescence reading in assay [1] was found to be 1.68. In assay [2], this compound showed a Final product mass of 100 µg.

Take `CO[C@@H]1[C@H](OP(=O)([O-])OC[C@H]2O[C@@H](n3cnc4c(=O)[nH]c(N)nc43)[C@H](O)[C@@H]2O)[C@@H](COP(=O)(O)OP(=O)(O)OP(=O)(O)OC[C@H]2O[C@@H](n3c[n+](C)c4c(=O)[nH]c(N)nc43)[C@H](O)[C@@H]2OC)O[C@H]1n1cnc2c(N)ncnc21` [Compound N-7413, reference compound]: the Relative fluorescence reading in assay [1] is reported as 1.00. In assay [2], this compound displayed a Final product mass of 114 µg.
